This assay concerns INS-1E Gaussia luciferase insulin secretion, no glucose, luminescence. Briefly: insulin secretion activators without glucose, dose response, counter-screen for glucose-dependent insulin secretion activators, cell-based, INS-1E, Gaussia luciferase, luminescence, cherry-pick (AID 977606).

This note sets out measurements from PubChem BioAssay AID977606 (Broad Institute, 2014).

Several values for one entry are separate records, joined by “and”; a condition that tells them apart may be missing. Equal entries are not always repeated. Activity calls are given as the source filed them. No rule for the calls is given here.

On to `Cc1ccc(-c2ccc(C3[C@@H]4CN(Cc5cccc(F)c5)C[C@H]3N4)cc2)cc1` (some centres not stated), for which the AC40 was 2.14 µM.
Take `CNC[C@@H](Cc1ccccc1)NC[C@@H](CC1CCCCC1)NCCCc1ccccc1`: the AC40 was 13.1 µM.
The figure for `CC(C)CC#Cc1ccc2c(c1)O[C@@H](CN(C)Cc1ccc(F)cc1)[C@H](C)CN([C@H](C)CO)S2(=O)=O` is 9.44 µM.
As to `OC(c1ccccc1)(c1ccccc1)C1CCN(CCCOc2ccc(-c3ccsc3)cc2)CC1`, the AC40 is 9.65 µM.
For the compound `COC(=O)c1ccc2c(=O)[nH]c(CSc3nc(-c4ccc(F)cc4)cs3)nc2c1`, the AC40 was 4.39 µM.
As for `COc1ccc(CNCC(O)COc2ccc(C(C)(C)c3ccccc3)cc2)cc1` (configuration not stated), the AC40 is 6.24 µM.
In the case of `FC(F)(F)c1cc(CCN2CCNC[C@@H]2CC2CCCCC2)cc(C(F)(F)F)c1`, the AC40 is 4.05 µM.
Turning to `O=C(Cn1c(COc2ccccc2)nc2ccccc21)Nc1cc(Cl)cc(Cl)c1`, the AC40 was 5.2 µM.
For the compound `OC(c1ccccc1)(c1nc(-c2cccc(C(F)(F)F)c2)cs1)C(F)(F)F` (configuration not stated), the AC40 was 10.1 µM.
`CCCOc1ccc(/C=N/NC(=O)C(=O)Nc2ccccn2)cc1`: the AC40 is 18.5 µM.
As for `CC(=O)N(/N=C/c1cccc(C)c1)c1nc(-c2ccc(Br)cc2)cs1`, the AC40 is 2.15 µM.
Next, `Cc1ncc(N=Nc2ccc(F)cc2)c(-c2ccc(Cl)cc2)n1`: 8.66 µM; `O=C(Nc1ccc(Cl)c(Cl)c1)Nc1nc(-c2ccccc2)cs1`: 4.07 µM.
`CC(C)C(Cl)=NOC(=O)Nc1ccc(S(N)(=O)=O)cc1`: the AC40 is 4.58 µM.
Turning to `CCOc1ccc(-n2nnnc2-c2nc3ccccc3s2)cc1`, the AC40 is 12.2 µM.
For `COc1cc2c3nnc(-c4ccccc4)c-3cn(Cc3ccccc3F)c2cc1OC`, the AC40 is 15.6 µM.
In the case of `CCCN1Cc2cccc(C(=O)NCc3ccccc3)c2C1=O`, the AC40 is > 35 µM (inactive).
For `COC(=O)C1=C(C)N(Cc2cccc(C(F)(F)F)c2)C(=NCc2ccccc2)NC1c1ccc(Cl)cc1` (configuration not stated), the AC40 was 10.4 µM.
With `C[C@@H]1CN([C@H](C)CO)S(=O)(=O)c2ccc(-c3ccc(F)cc3)cc2O[C@H]1CN(C)Cc1cccc(F)c1`, the AC40 is 17.7 µM.
As for `CCCCCc1c(Cc2ccccc2)ncn1CCc1ccccc1OC`, the AC40 was 8.28 µM.
Consider `CCCCCCC1CCC(C(=O)Nn2c(C)nc3ccccc3c2=O)CC1` (configuration not stated), for which the AC40 was 14.8 µM.
As for `COc1ccccc1C(=O)NC(=S)Nc1ccc2[nH]c(=O)[nH]c2c1`, the AC40 was 8.24 µM.
On to `Cc1cc(NC(=O)c2cc(-c3cccc(Cl)c3)on2)no1`, for which the AC40 was 20.7 µM.
For `CCOC(=O)c1ccc(Nc2ncnc3ccc(C)cc23)cc1`, the AC40 is 11.5 µM.
The figure for `Oc1ccccc1-c1cc(C(F)(F)C(F)F)nc(-c2ccccc2)n1` is 3.86 µM; for `CC(C)(C(=O)N1CCC1(C)C(=O)NS(=O)(=O)c1ccc(Br)cc1)c1ccccc1` (configuration not stated) it is 10.3 µM; for `CC1(C(=O)NS(=O)(=O)c2ccccc2Cl)CCN1C(=O)C1(c2ccccc2)CCCC1` (configuration not stated) it is 23.4 µM.
`Cc1ccc(-n2sc3cc(F)ccc3c2=O)c(C)c1`: the AC40 is 0.883 µM.
`COc1ccc(NC(=O)COc2ccc(C(=O)NC3CCCc4ccccc43)cc2OC)cc1` (configuration not stated): the AC40 is 5.92 µM.
On to `CC(C)NC(=O)OC[C@H]1O[C@H](C#Cc2ccc(C(C)(C)C)cc2)C=C[C@H]1O`, for which the AC40 was 20.3 µM.
Turning to `CCOC(=O)Nc1cccc(OCC(=O)Nc2ccc3c(c2)CCC3)c1`, the AC40 was 8.25 µM.
Consider `CCOC(=O)c1c(NC(=O)Cn2nc(C(F)(F)F)cc2C)sc(C)c1C`, for which the AC40 is 5.96 µM.
The figure for `CC(C)CC(NC(=O)c1ccc(Cl)cc1)C(=O)OCC(=O)c1ccc2c(c1)NC(=O)CO2` (configuration not stated) is 2.04 µM; for `CC1CN(Cc2ccccc2)C(=S)NC1=O` (configuration not stated) it is 28.6 µM; for `CCCCc1c(-c2ccc(F)cc2F)ncn1CCc1ccccc1OC` it is 5.38 µM.
As for `Cc1c(C(=O)OCC(=O)N2CC(=O)Nc3ccccc32)oc2ccc(Br)cc12`, the AC40 was 5.24 µM.
In the case of `O=C(Nc1nc(-c2ccc(-c3ccccc3)cc2)cs1)C1=COCCO1`, the AC40 is 4.37 µM.
The figure for `Cc1cc(Nc2ccc(Cl)cc2)nc(NCc2ccccc2)n1` is 6.67 µM.
In the case of `FC(F)(F)c1cc(CCN2CCNC[C@@H]2c2ccccc2)cc(C(F)(F)F)c1`, the AC40 is 7.26 µM.
Regarding `CN(C)CCNc1ncnc2oc(-c3ccccc3)c(-c3ccccc3)c12`, the AC40 is 26.4 µM.
The figure for `CN(C)S(=O)(=O)c1cccc(-n2sc3ccccc3c2=O)c1` is 2.58 µM; for `Cc1nc2c(-c3ccc(F)cc3)cnn2c2c1CCC2` it is 20.1 µM; for `O=C(Nc1ccccc1N1CCOCC1)C1=NN(c2ccccc2)C(=O)CC1` it is 24.3 µM.
Turning to `O=c1c2ccccc2nc(-c2ccco2)n1/N=C/c1ccccc1O`, the AC40 was 11.7 µM.
Next, `CCN1CCN(Cc2ccc(NC(=O)c3cccc(-c4ccc5nc(NC(=O)C6CC6)sc5n4)c3)cc2C(F)(F)F)CC1`: 12 µM; `CS(=O)(=O)c1ccc2nc(NC(=O)Nc3ccc(Cl)c(Cl)c3)sc2c1`: 1.92 µM; `CN(C)C(=O)COC(=O)c1cccnc1Nc1ccccc1F`: 29.5 µM.
`Cc1ccc(-c2n[nH]c(=S)n2/N=C/c2c(C)nn(-c3ccccc3)c2C)cc1`: the AC40 was 6.5 µM.
For the compound `Cc1ccc(S(=O)(=O)C=CS(=O)(=O)c2ccc(C)cc2)cc1`, the AC40 was 0.228 µM.
`C=CCn1c(=NC(=O)c2cc(Cl)sc2Cl)sc2cc(S(N)(=O)=O)ccc21`: the AC40 is 4.47 µM.
Take `Fc1ccc(-c2ccc(C3[C@@H]4CN(Cc5ccccc5)C[C@H]3N4)cc2)cc1` (some centres not stated): the AC40 was 8.97 µM.
With `CNC[C@H](CC1CCCCC1)NC[C@H](Cc1ccccc1)NCCC12CC3CC(CC(C3)C1)C2`, the AC40 was 4.43 µM.
For `COCCN(CCOC)Cc1cc(=O)oc2cc(OC)c(Cl)cc12`, the AC40 is > 35 µM (inactive).
`CCCNC(=O)Cn1sc2nc(C)cc(C)c2c1=O`: the AC40 was 2.31 µM.
`Fc1cccc(CN2C[C@@H]3N[C@H](C2)C3c2ccc(/C=C/c3ccccc3)cc2)c1` (some centres not stated): the AC40 was 6.41 µM.
In the case of `Cc1ccc2oc(-c3cccc(NC(=O)Cc4cccs4)c3)nc2c1`, the AC40 is 2.42 µM.
The figure for `O=C(Nc1ccc2c(c1)OCO2)N1C[C@@H]2N[C@H](C1)C2c1ccc(C=Cc2ccccc2)cc1` (some centres not stated) is 11.7 µM; for `COc1ccc(-c2ccc(C3[C@@H]4CN(Cc5cccc(OC)c5)C[C@H]3N4)cc2)cc1` (some centres not stated) it is 6.42 µM; for `NC1=NC[C@H](CC2CCCCC2)N1CCc1cc(C(F)(F)F)cc(C(F)(F)F)c1` it is 9.8 µM.
With `C=CCNc1nc(NCc2ccco2)nc(OCC)n1`, the AC40 was > 35 µM (inactive).
Turning to `CC(C)CC#Cc1ccc([C@H]2[C@H]3CN(C(=O)c4cnccn4)CC(=O)N3[C@H]2CO)cc1`, the AC40 was > 35 µM (inactive).
As for `CCOC(=O)c1[nH]c2cc(OC)c(OC)cc2c1NC(=O)c1ccc2c(c1)OCO2`, the AC40 was 15.6 µM.
As for `OC(c1ccccc1)(c1ccccc1)C1CCN(CCCOc2ccc3c(c2)CCCC3)CC1`, the AC40 was 3.37 µM.
In the case of `CCN(Cc1ccccc1)S(=O)(=O)c1ccc(C(=O)N(CCCN(C)C)c2nc3cc(C)cc(C)c3s2)cc1`, the AC40 is 3.71 µM.
Turning to `COc1cc(OC)c2c3c(c(C4CCCCC4)nc2c1)CCC3`, the AC40 is 7.44 µM.
Next, `O=C(Nc1ccc(C(F)(F)F)cc1)N1C[C@@H]2N[C@H](C1)C2c1ccc(/C=C/c2ccccc2)cc1` (some centres not stated): 5.24 µM and 0.87 µM.
Regarding `COC(=O)C1=C(C)N(Cc2cccc(C(F)(F)F)c2)C(=NCc2ccc(OC)cc2)NC1c1cccc(Cl)c1` (configuration not stated), the AC40 is 5.16 µM.
In the case of `Cc1ccccc1-n1sc2cc(F)ccc2c1=O`, the AC40 is 0.539 µM.
The figure for `COc1cc2sc3ccc(C#Cc4ccc(N)cc4)cc3c(=O)c2cc1OC` is 19 µM.
Turning to `COC(=O)C1=C(C)N(Cc2ccc(C(F)(F)F)cc2)C(=NCC2CC2)NC1c1ccccc1` (configuration not stated), the AC40 was 9.63 µM.
Turning to `CCCCCCn1c(N(CC)CC)nc2c1c(=O)[nH]c(=O)n2C`, the AC40 is 30.8 µM.
As to `CC(=O)Nc1sc(N/N=C\c2cccc(Cl)c2)nc1-c1cccs1`, the AC40 was 4.69 µM.
With `CC1(C(=O)NCc2cccc3ccccc23)CCN1Cc1ccc(OC(F)(F)F)cc1` (configuration not stated), the AC40 was 9.49 µM.
For `COc1ccc(C(C)NCCC(c2ccc(OC(C)C)cc2)c2ccccc2OC)cc1` (configuration not stated), the AC40 is 4.99 µM.
Regarding `Cc1ccccc1S(=O)(=O)N1CC(=O)N2[C@@H](CO)[C@H](c3ccc(C#CCC4CCCC4)cc3)[C@@H]2C1`, the AC40 is 22.6 µM.
In the case of `CCc1ccc(OCC(=O)NC(=S)Nc2ccc(F)cc2)c(Br)c1`, the AC40 was 6.76 µM.
Next, `OC(c1ccccc1)(c1ccccc1)C1CCN(CCCOc2ccc(-c3ccc(F)cc3F)cc2)CC1`: 1.29 µM.
In the case of `CCOC(=O)c1oc2ccccc2c1NC(=O)c1cccs1`, the AC40 was 12.6 µM.
Take `C[C@H]1CN([C@@H](C)CO)S(=O)(=O)c2ccc(C#Cc3ccccc3)cc2O[C@@H]1CN(C)C(=O)CN(C)C`: the AC40 is 11.1 µM.
As for `Cc1ccc(NC(=O)c2ccc(COc3ccc4c(c3)CCC4)cc2)c(C)c1`, the AC40 is 0.841 µM.
For the compound `NS(=O)(=O)c1ccc(N=Cc2c(O)n(C3CCCCC3)c(=O)n(C3CCCCC3)c2=O)cc1`, the AC40 is 15.1 µM.
With `COc1ccc(C(=O)c2sc(Nc3ccccc3)nc2N)cc1OC`, the AC40 is 26.5 µM.
Next, `COC(=O)C1=C(C)N(Cc2cccc(C(F)(F)F)c2)C(=NCc2ccc(OC)cc2)NC1c1cccc(F)c1` (configuration not stated): 3.75 µM.
With `COC(=O)c1cnn(-c2nc(-c3ccccc3)cs2)c1N`, the AC40 is 20.4 µM.
Turning to `NC(CCc1ccccc1)c1csc(Nc2ccc(C(F)(F)F)cn2)n1` (configuration not stated), the AC40 was 6.01 µM.
As to `Nc1nc(N)c2cc(Sc3ccc(Cl)cc3)ccc2n1`, the AC40 is 9.55 µM.
Regarding `O=C1CC(Sc2nnc(-c3ccccc3)o2)C(=O)N1c1ccccc1` (configuration not stated), the AC40 is 9.58 µM.
For `COC(=O)C1=C(C)N(Cc2cccc(C(F)(F)F)c2)C(=NCc2ccc(OC)cc2)NC1c1ccc(F)cc1` (configuration not stated), the AC40 is 8.44 µM.
As for `CCSc1ccc2nnc(-c3ccc(F)cc3)n2n1`, the AC40 is 17.9 µM.
In the case of `Cc1ccc2oc(-c3ccc(NC(=O)c4ccc5c(c4)OCO5)cc3)nc2c1`, the AC40 is 1.1 µM.
For the compound `CN(C)CCNC(=O)c1cccc(-c2cc(NC=O)c3ncc(-c4cccc(C(F)(F)F)c4)n3c2)c1`, the AC40 is 13.7 µM.
The figure for `Fc1ccc(-c2ccc(C3[C@@H]4CN(Cc5cccc(F)c5)C[C@H]3N4)cc2)cc1` (some centres not stated) is 5.18 µM.
